These results are taken from paper PMC7433010, “Exploration of multi‐target effects of 3‐benzoyl‐5‐hydroxychromen‐2‐one in Alzheimer’s disease cell and mouse models” (Aging Cell, 2020).

Data set [1] can be described thus: MTT cytotoxicity in uninduced retinoic acid‐differentiated SH‐SY5Y cells. Conditions: human. The class given is cell-based. How it is done: (§1) Licochalcone A and five derivative LM compounds were tested (Figure 1a). All six compounds were soluble up to 100 μM in a cell culture medium (Figure S1a). Based on molecular weight (MW), hydrogen bond donors (HBD), hydrogen bond acceptors (HBA), and calculated octanol/water partition coefficient (cLogP), all six compounds meet Lipinski's criteria in predicting oral bioavailability (Lipinski, Lombardo, Dominy, & Feeney, 1997) (Figure S1b). […] To choose the optimal treatment dose used for the best efficacy of the candidate compounds, a specific type of biphasic dose response of a compound called hormesis should take into consideration. Evidence has shown that a wide range of pharmaceutical products display a hermetic dose‐response feature, characterized by a low‐dose stimulation and a high‐dose inhibition (Calabrese et al., 2018; Concetta Scuto et al., 2019; Pilipenko et al., 2019). Therefore, we tested the compounds at a range of doses to find the optimal dose for the best therapeutic effect and the least cytotoxicity. Firstly, MTT assay was performed using uninduced ∆K280 TauRD‐DsRed 293 and retinoic acid‐differentiated SH‐SY5Y cells following treatment with the test compounds (0.1–10 μM) for 3 (for 293 cells) or 7 (for SH‐SY5Ycells) days. […] Congo red is an amyloidogenic dye known to reduce Aβ neurotoxicity (Lorenzo & Yankner, 1994).
(§2) Licochalcone A was purchased from Sigma-Aldrich, St. Louis, MO, USA. In-house LM compounds were synthesized and characterized by NMR spectrum as described (Lee et al., 2012, 2015, 2018). Tet-On ∆K280 TauRD-DsRed 293 and SH-SY5Y cells (Chang et al., 2016) were cultured in Dulbecco’s modified Eagles medium (DMEM) (293) or DMEM-F12 (SH-SY5Y) containing 10% fetal bovine serum (Invitrogen, Carlsbad, CA, USA), 5 μg/ml of blasticidin, and 100 μg/ml of hygromycin (InvivoGen, San Diego, CA, USA). Compound cytotoxicity was assessed by colorimetric assay for measuring cell metabolic activity. Briefly, 5 × 10^4 cells were plated (48-well plates), grown for 20 h, and treated with the test compounds ([…]). […], 20 µl of 3-(4,5-dimethylthiazol-2-yl)-2,5-diphenyltetrazolium bromide (MTT, 5 mg/ml in PBS; Sigma-Aldrich) was added to the cells and incubated at 37°C for 3 h. Then 200 µl of lysis buffer (10% Triton X-100, 0.1 N HCl, 18% isopropanol) was added and the absorbance of the insoluble product at OD 570 nm was measured by a microplate reader (FLx800 fluorescence microplate reader, Bio-Tek, Winooski, VT, USA). The half-maximal inhibitory concentration (IC50) was calculated using the interpolation method.
(§3) Figure S1. Test compounds. (a) Solubility (in cell culture medium) of test compounds. (b) Molecular weight (MW), hydrogen bond donor (HBD), hydrogen bond acceptor (HBA), calculated octanol-water partition coefficient (cLogP), polar surface area (PSA), and predicted blood-brain barrier (BBB) score of test compounds. (c) Cytotoxicity of test compounds against ∆K280 TauRD-DsRed 293 and SH-SY5Y cells using the MTT assay. Uninduced 293 cells were plated on day 1 and treated with 0.1–10 μM test compounds on day 2. Cell viability was measured on day 5 (n = 3). In addition, uninduced SH-SY5Y cells were seeded with all trans retinoic acid (RA; 10 µM) on day 1 and treated with 0.1–10 μM test compounds on day 2. Cell viability was measured on day 9 (n = 3). To normalize, the relative viability in compound untreated cells was set at 100%. IC50 values are listed.

The nature of data set [2]: MTT cytotoxicity in uninduced ∆K280 TauRD‐DsRed 293 cells. Type of data set: cell-based. Conditions: human. How it is done:
as §1, §2, §3

SMILES strings stand for the structures. Read-outs that look alike come from different tables or passages of the source.

The term IC50 denotes the concentration at which inhibition is half-maximal.

With `COc1ccc(C(=O)/C=C/c2cc(Br)ccc2O)cc1` [LM‐004], the IC50 at 7 days in data set [1] came to 4.8 µM. In addition, the 50% inhibitory concentration (IC50) at 3 days in data set [2] amounted to 6.4 µM.
For `O=C(c1ccccc1)c1cc2c(O)cccc2oc1=O` [LM‐031, 3‐benzoyl‐5‐hydroxychromen‐2‐one], in that order: 6.8 µM and 55.9 µM.
The like results for `Nc1c(/N=N/c2ccc(-c3ccc(/N=N/c4cc(S(=O)(=O)O)c5ccccc5c4N)cc3)cc2)cc(S(=O)(=O)O)c2ccccc12` [congo red, reference compound] were, in that order, 27.4 µM and 36.4 µM.
`C=CC(C)(C)c1cc(/C=C/C(=O)c2ccc(O)cc2)c(OC)cc1O` [licochalcone A, reference compound]: the IC50 at 7 days in data set [1] (uninduced retinoic acid‐differentiated SH‐SY5Y cells, 7 days treatment, read-out: IC50 (MTT cytotoxicity)) came out at 5.8 µM. In data set [2] (uninduced Tet-On ∆K280 TauRD-DsRed 293 cells, uninduced 293 cells, 3 days treatment, read-out: IC50 (MTT cytotoxicity)), the IC50 at 3 days is 7 µM.
